The record followed here is patent US9227971B2, “Pyrazolo[1,5-a]pyrimidine compounds as mTOR inhibitors” (Merck Sharp & Dohme Corp., priority 2010, dated 2016).

Assay [1] relates to phosphorylated AKT Ser473 (pAKT S473), mTORC2 activity, PC3 cells. Description: mTOR target engagement assay, immunofluorescent cell-based, pAKT S473 readout (mTORC2 activity). The note with it: Homo sapiens. A digest of the protocol:
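After blocking, cells were stained overnight at 4 °C with anti-pAKT S473 antibody, then a fluorescent secondary; inhibition was read as reduced fluorescence intensity.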

Assay [2] relates to phosphorylated 4E-BP1 Thr37/46 (p4E-BP1 Thr37/46), mTORC1 activity, PC3 cells. The experiment in a line: mTOR target engagement assay, immunofluorescent cell-based, p4E-BP1 Thr37/46 readout (mTORC1 activity). The note with it: Homo sapiens, read-out: p4E-BP1 Thr37/46 IC50. A digest of the protocol: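 Seed PC3 cells overnight; treat with compound dilutions for ninety minutes at 37° C; fix with glyoxal and block; stain with anti-p4E-BP1 Thr37/46 overnight at 4° C, then fluorescent secondary; read fluorescence and fit IC50 against DMSO-only controls.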

The mark [3] stands for this setting: PC-3, PC3 cells, compound treatment ninety minutes at 37° C.

Where two headings read alike, the source gives them in different places.

`Cc1nc(-c2ccc(-c3cnn4c(N)c(C5CC5)c([C@@H]5C[C@H]6CC[C@@H](C5)N6C(=O)CO)nc34)cn2)[nH]c1C` [Compound 6.32, 1-((1R,3s,5S)-3-(7-amino-6-cyclopropyl-3-(6-(4,5-dimethyl-1H-imidazol-2-yl)pyridin-3-yl)pyrazolo[1,5-a]pyrimidin-5-yl)-8-azabicyclo[3.2.1]octan-8-yl)-2-hydroxyethanone]: the IC50 in assay [1] (PC-3, Table 6-1, PC3 cells) lay within 0.001 to 0.1 µM; in assay [2] (PC-3, Table 6-1, PC3 cells) it was 0.1 to 1 µM.
In the case of `Nc1c(C2CC2)c([C@@H]2C[C@H]3CC[C@@H](C2)N3C(=O)c2nnc[nH]2)nc2c(-c3ccc(C4(O)CCC4)nc3)cnn12` [Compound 7.43, ((1R,3s,5S)-3-(7-amino-6-cyclopropyl-3-(6-(1-hydroxycyclobutyl)pyridin-3-yl)pyrazolo[1,5-a]pyrimidin-5-yl)-8-azabicyclo[3.2.1]octan-8-yl)(4H-1,2,4-triazol-3-yl)methanone], the IC50 in assay [1] (PC-3, Table 7-8, PC3 cells) is 0.1 to 1 µM; in assay [2] (PC-3, Table 7-8, PC3 cells), 0.1 to 1 µM.
For the compound `CS(=O)(=O)c1c([C@@H]2C[C@H]3CC[C@@H](C2)N3C(=O)c2nnc[nH]2)nc2c(-c3ccc(-c4ccc5c(c4)OC(F)(F)O5)nc3)cnn2c1N` [Compound 3.53, ((1R,3s,5S)-3-(7-amino-3-(6-(2,2-difluorobenzo[d][1,3]dioxol-5-yl)pyridin-3-yl)-6-(methylsulfonyl)pyrazolo[1,5-a]pyrimidin-5-yl)-8-azabicyclo[3.2.1]octan-8-yl)(4H-1,2,4-triazol-3-yl)methanone], the IC50 in assay [1] (PC-3, Table 3-1, PC3 cells) is 0.1 to 1 µM; in assay [2] (PC-3, Table 3-1, PC3 cells), 1 to 10 µM.
Taken in the same sequence, the figures for `COc1ccc(-c2ccc(-c3cnn4c(N)c(S(C)(=O)=O)c([C@@H]5C[C@H]6CC[C@@H](C5)N6C(=O)c5nnc[nH]5)nc34)cn2)cc1F` [Compound 3.37, ((1R,3s,5S)-3-(7-amino-3-(6-(3-fluoro-4-methoxyphenyl)pyridin-3-yl)-6-(methylsulfonyl)pyrazolo[1,5-a]pyrimidin-5-yl)-8-azabicyclo[3.2.1]octan-8-yl)(4H-1,2,4-triazol-3-yl)methanone] were 0.001 to 0.1 µM and 0.001 to 0.1 µM.
As to `CCn1ccc(-c2ccc(-c3cnn4c(N)c(C(C)=O)c([C@@H]5C[C@H]6CC[C@@H](C5)N6C(=O)CO)nc34)cn2)n1` [Compound 1.1.137, 1-((1R,3s,5S)-3-(6-acetyl-7-amino-3-(6-(1-ethyl-1H-pyrazol-3-yl)pyridin-3-yl)pyrazolo[1,5-a]pyrimidin-5-yl)-8-azabicyclo[3.2.1]octan-8-yl)-2-hydroxyethanone], the IC50 in assay [1] (setting [3]) lay in the range of 0.001 to 0.1 µM; in assay [2] (setting [3]), 0.1 to 1 µM.
Regarding `COc1ccc(-c2ccc(-c3cnn4c(N)c(C5CC5)c([C@@H]5C[C@H]6CC[C@@H](C5)N6C(=O)c5nnc(N)[nH]5)nc34)cn2)cc1F` [Compound 4.27, (5-amino-4H-1,2,4-triazol-3-yl)((1R,3a,5S)-3-(7-amino-6-cyclopropyl-3-(6-(3-fluoro-4-methoxyphenyl)pyridin-3-yl)pyrazolo[1,5-a]pyrimidin-5-yl)-8-azabicyclo[3.2.1]octan-8-yl)methanone], the IC50 in assay [1] (setting [3]) and in assay [2] (setting [3]) was 0.001 to 0.1 µM in each case.
Consider `COc1ccc(-c2ccc(-c3cnn4c(N)c(C5CC5)c([C@@H]5C[C@H]6CC[C@@H](C5)N6C(=O)c5nnc[nH]5)nc34)cn2)cc1F` [Compound 4.9, ((1R,3s,5S)-3-(7-amino-6-cyclopropyl-3-(6-(3-fluoro-4-methoxyphenyl)pyridin-3-yl)pyrazolo[1,5-a]pyrimidin-5-yl)-8-azabicyclo[3.2.1]octan-8-yl)(4H-1,2,4-triazol-3-yl)methanone], for which the IC50 in assay [1] (setting [3]) was in the range of 0.001 to 0.1 µM; in assay [2] (setting [3]), 0.1 to 1 µM.
`Cn1ccc(-c2ccc(-c3cnn4c(N)c(S(C)(=O)=O)c([C@@H]5C[C@H]6CC[C@@H](C5)N6C(=O)c5nnc[nH]5)nc34)c[n+]2[O-])n1` [Compound 3.41, 5-(5-((1R,3s,5S)-8-(4H-1,2,4-triazole-3-carbonyl)-8-azabicyclo[3.2.1]octan-3-yl)-7-amino-6-(methylsulfonyl)pyrazolo[1,5-a]pyrimidin-3-yl)-2-(1-methyl-1H-pyrazol-3-yl)pyridine 1-oxide]: the IC50 fell in the range of 0.001 to 0.1 µM in assay [1] (PC-3, Table 3-1, PC3 cells) and 0.1 to 1 µM in assay [2] (PC-3, Table 3-1, PC3 cells).
Regarding `CC(=O)c1c([C@@H]2C[C@H]3CC[C@@H](C2)N3C(=O)c2nnc(C)[nH]2)nc2c(-c3ccc(-c4ncc[nH]4)nc3)cnn2c1N` [Compound 6.21, 1-(3-(6-(1H-imidazol-2-yl)pyridin-3-yl)-7-amino-5-((1R,3s,5S)-8-(5-methyl-4H-1,2,4-triazole-3-carbonyl)-8-azabicyclo[3.2.1]octan-3-yl)pyrazolo[1,5-a]pyrimidin-6-yl)ethanone], the IC50 fell in the range of 0.001 to 0.1 µM in assay [1] (PC-3, Table 6-1, PC3 cells) and 0.001 to 0.1 µM in assay [2] (PC-3, Table 6-1, PC3 cells).
As for `Nc1c(C2CC2)c(C2CC3CCC(C2)N3C(=O)c2nnc(O)[nH]2)nc2c(-c3ccc(-c4ccccc4)nc3)cnn12` [Compound 8.106, ((1R,3s,5S)-3-(7-amino-6-cyclopropyl-3-(6-phenylpyridin-3-yl)pyrazolo[1,5-a]pyrimidin-5-yl)-8-azabicyclo[3.2.1]octan-8-yl)(5-hydroxy-4H-1,2,4-triazol-3-yl)methanone], the IC50 in assay [1] (PC-3, PC3 cells) lay within 0.001 to 0.1 µM; in assay [2] (PC-3, PC3 cells), 0.001 to 0.1 µM.
For the compound `CS(=O)(=O)c1c([C@@H]2C[C@H]3CC[C@@H](C2)N3C(=O)CO)nc2c(-c3ccc(CO)c(F)c3)cnn2c1N` [Compound 8.43, 1-((1R,3s,5S)-3-(7-amino-3-(3-fluoro-4-(hydroxymethyl)phenyl)-6-(methylsulfonyl)pyrazolo[1,5-a]pyrimidin-5-yl)-8-azabicyclo[3.2.1]octan-8-yl)-2-hydroxyethanone], the IC50 in assay [1] (PC-3, PC3 cells) is 0.1 to 1 µM; in assay [2] (PC-3, PC3 cells), 0.1 to 1 µM.
Consider `CC(=O)c1c([C@@H]2C[C@H]3CC[C@@H](C2)N3C(=O)c2nnc[nH]2)nc2c(-c3ccc(-c4cccc(F)c4)nc3)cnn2c1N` [Compound 1.1.103, 1-(5-((1R,3r,5S)-8-(4H-1,2,4-triazole-3-carbonyl)-8-azabicyclo[3.2.1]octan-3-yl)-7-amino-3-(6-(3-fluorophenyl)pyridin-3-yl)pyrazolo[1,5-a]pyrimidin-6-yl)ethanone], for which the IC50 in assay [1] (setting [3]) and in assay [2] (setting [3]) was 0.001 to 0.1 µM throughout.
As to `COc1ccc(-c2ccc(-c3cnn4c(N)c(S(C)(=O)=O)c([C@@H]5C[C@H]6CC[C@@H](C5)N6C(=O)c5nnc[nH]5)nc34)cn2)cc1Cl` [Compound 3.51, ((1R,3s,5S)-3-(7-amino-3-(6-(3-chloro-4-methoxyphenyl)pyridin-3-yl)-6-(methylsulfonyl)pyrazolo[1,5-a]pyrimidin-5-yl)-8-azabicyclo[3.2.1]octan-8-yl)(4H-1,2,4-triazol-3-yl)methanone], the IC50 in assay [1] (PC-3, Table 3-1, PC3 cells) fell in the range of 0.001 to 0.1 µM; in assay [2] (PC-3, Table 3-1, PC3 cells), 0.001 to 0.1 µM.
As for `CC(=O)N1[C@@H]2CC[C@H]1C[C@H](c1nc3c(-c4ccc(-c5nc(C)cs5)nc4)cnn3c(N)c1S(C)(=O)=O)C2` [Compound 3.190, 1-((1R,3a,5S)-3-(7-amino-6-(methylsulfonyl)-3-(6-(4-methylthiazol-2-yl)pyridin-3-yl)pyrazolo[1,5-a]pyrimidin-5-yl)-8-azabicyclo[3.2.1]octan-8-yl)ethanone], the IC50 in assay [1] (PC-3, Table 3-1, PC3 cells) was in the range of 1 to 10 µM; in assay [2] (PC-3, Table 3-1, PC3 cells) it was 1 to 10 µM.
